Data reported in patent US20250196055A1, “PROCESS FOR CAPTURING CO2 FROM A MOBILE SOURCE USING AN AMINO ACID SOLVENT” (SAUDI ARABIAN OIL COMPANY, priority 2021, published 2025).
Values belong to the molecule of their own block, whether it stands above or below them.

How the values were obtained:
[1] = Preliminary solubility testing of CO2-loaded amino/amino-sulfonic acid solutions (precipitation temperature); assay type: physicochemical; settings: for solubility of CO2-loaded solution (in words): CO2 loaded 0.35-0.45 mol CO2/mol alk., lowest limit of apparatus −10° C.; for Precipitation Temperature: ambient pressure, test range −10° C. to 40° C.
Experimental: Preliminary solubility testing was carried out with various amino and amino-sulfonic acids and blends thereof to determine the propensity for solids precipitation. These blends were loaded with CO2 under representative process conditions: a CO2 loading from 0.35 to 0.45 mol CO2/mol alkalinity at ambient pressure and a temperature from −10° C. to 40° C. CO2 loading was achieved by addition of potassium bicarbonate instead of some potassium hydroxide as the neutralizing agent. The loading (in mol CO2 per mol alkalinity) was determined from the following equation: […]

[2] = Continuous test plant: membrane contactor CO2 absorption from exhaust and solvent regeneration in stripper; settings: for solids at ambient conditions (in words): atmospheric pressure and room temperature
[3] = Solubility testing in gas bubbler/sparger with continuous 9 mol % CO2 in N2; settings: 9 mol % CO2, ambient conditions

Solid Observed ([2]; 210 kPa stripper pressure, 120° C. stripper temperature, 3.75 kg/min liquid, 9 mol % CO2, 25 SCFM): YES | solids at ambient conditions (in words) ([2]; listed as 3 m potassium taurinate): solids are formed
Structure (SMILES): NCCS(=O)(=O)O [3 m TAU, taurine]
solubility of CO2-loaded solution (in words) [1]: soluble at process temperatures from 40 °C to 120° C., but potentially not soluble at room temperature

solubility of CO2-loaded solution (in words) [1]: highly soluble with no precipitation | Precipitation Temperature ([1]; Loading 0.35 mol CO2/mol alk.): <−10 °C | Precipitation Temperature ([1]; Loading 0.40 mol CO2/mol alk.): <−10 °C | Precipitation Temperature ([1]; Loading 0.45 mol CO2/mol alk.): <−10 °C
Structure (SMILES): NCCCS(=O)(=O)O [5 m homotaurine, homotaurine]

precipitation when 9 mol % CO2 continuously injected (in words) [3]: did not precipitate
Structure (SMILES): NCCC(=O)O [5 m b-ALA, Beta-alanine]

solids at ambient conditions (in words) ([2]; listed as 5 m taurine): solids are observed
Structure (SMILES): NCCS(=O)(=O)O [5 m TAU, taurine]

Continued, molecule first:

Structure (SMILES): CC(C)(N)C(=O)O [1 m AlBA, Amino isobutyric acid]
precipitation when 9 mol % CO2 continuously injected (in words) [3]: did not precipitate

Structure (SMILES): CN[C@@H](C)C(=O)O [3 m NMA, n-methyl-alanine]
precipitation when 9 mol % CO2 continuously injected (in words) [3]: did not precipitate

Structure (SMILES): NCCCS(=O)(=O)O [3 m HTAU, homotaurine]
precipitation when 9 mol % CO2 continuously injected (in words) [3]: did not precipitate
